Legend:
[1] = tested on: α1-acid glycoprotein (AGP); experiment: Protein binding assay, AGP-HPLC (Chiralpak-AGP column); conditions: phosphate buffer pH 7.0/iso-propanol gradient, 25 °C
Protocol: (§1) In this study, the gradient retention times are standardized using a calibration set of compounds with known percentage of plasma protein binding data (PPBlit).
(§2) Validation of the methods was performed by evaluation of retention of warfarin enantiomers. As retention time on HSA and AGP columns is dependent on the injected amount of compound, the smallest possible amount of sample was injected so that the compound would not saturate the specific binding site.
(§3) The interactions of analytes with plasma proteins human serum albumin (HSA) and α1-acid glycoprotein (AGP) have been measured using commercially available chemically bonded HSA (Chiralpak-HSA, 50 × 4.6 mm, 5 μm particle size) and AGP (Chiralpak-AGP, 50 × 4.6 mm, 5 μm particle size) columns obtained by ChromTech (Cedex, France). The mobile phase consisted of 20 mM potassium phosphate buffer with the pH adjusted to 7.0 (A) and iso-propanol (B). The gradient program was as follows: 0–3 min, linear gradient 0–30% B, 3–10 min, isocratic 30% B. The total run time was 15 min to allow re-equilibration of the protein phase with the buffer. Injection volume was set at 10 µL, and the measurements were carried out at 25.0 ± 0.1 °C and at flow rate 1.5 mL/min. The absorbance of the analytes during a chromatographic run was collected at the following wavelengths: 250, 280, 300, 320 and 340 nm.

[2] = Phospholipid binding assay (IAM-HPLC, IAM.PC.DD2 column); type: physicochemical; conditions: for log kw IAM, chromatographic parameter of lipophilicity obtained by IAM-HPLC: phosphate-buffered saline pH 7.4 without organic modifier, 25 °C
Protocol: The binding of compounds to the immobilized artificial membrane (IAM) was measured using commercially available immobilized phosphatidylcholine columns (IAM.PC.DD2, 100 x 4.6 mm, […]) obtained by Regis Technologies (Morton Grove, IL, USA). The mobile phase consisted of phosphate-buffered saline that was filtrated through cellulose nitrate filter and degassed (5 min) by sonication before use.

[3] = RP-TLC hydrophobicity assay (RP-18 plates, methanol/phosphate-buffered saline); type: physicochemical; conditions: extrapolated to pure phosphate-buffered saline
Protocol: In reversed-phase chromatography, retention of analytes is governed by hydrophobicity, and this parameter was evaluated using both TLC and HPLC techniques. Due to high affinity of investigated compounds for octadecylsilane chemically bonded to porous silica applied on chromatographic plates, several analyses with mixtures of phosphate-buffered saline with various concentrations of methanol as mobile phase were performed. […] RM values were obtained according to Equation (1):(1) RM=log(1/RF−1), where RF represents the retention factor. Furthermore, chromatographic parameter of hydrophobicity, RMw, was obtained by extrapolation to pure buffer using the linear Equation (2):(2) RM = RMw − SΦ, where S is the slope of the regression line and φ is the concentration (expressed as volume fraction) of methanol.
TLC experiments were performed on commercially available 10 × 10 cm RP-18 TLC plates (Merck, Darmstadt, Germany). Methanol-phosphate-buffered saline mixtures were used as mobile phases. The methanol volume fraction was varied from 20% to 80% in 5% steps. A sufficient amount of mobile phase was placed in a Camag flat-bottom chamber for 10 × 10 cm plates with a stainless-steel lid to have a level of 5 mm. After saturation of chambers with solvent vapor for 30 min, the plates were developed to a distance of 9 cm at room temperature, dried in open air for 5 min and visualized under λ = 254 nm UV light.

[4] = RP-HPLC hydrophobicity assay (Symmetry C18 column, methanol/phosphate-buffered saline); type: physicochemical; conditions: extrapolated to pure phosphate-buffered saline, 25 °C
Source text: The obtained retention times, tR, were used to calculate log k values according to Equation (3): (3) logk=logtR−t0/t0, with t0 being the retention time of an unretained solute, sodium nitrate. Furthermore, chromatographic parameter of hydrophobicity, log kw C18, was obtained by extrapolation to pure buffer using the linear Equation (4):(4) logk = logkw − SΦ, where S is the slope of the regression line and φ is the concentration (expressed as volume fraction) of methanol.
Hydrophobicity of the compounds was also studied on a reversed-phase Symmetry C18 column (150 × 4.6 mm, 3.5 µm particle size) obtained by Waters (Milford, MA, USA). Methanol-phosphate-buffered saline mixtures were used as mobile phases. The methanol volume fraction was varied from 10% to 50% in 5% steps. Each mobile phase was shaken vigorously, filtrated through cellulose nitrate filter (0.45 μm, Sartorius, Goettingen, Germany) and degassed by sonication (5 min) before use.

[5] = target: human serum albumin (HSA) (Homo sapiens, UniProt P02768); experiment: Protein binding assay, HSA-HPLC (Chiralpak-HSA column); type: in vitro ADME; conditions: phosphate buffer pH 7.0/iso-propanol gradient, 25 °C
human serum albumin (HSA), sequence (P02768 25-609): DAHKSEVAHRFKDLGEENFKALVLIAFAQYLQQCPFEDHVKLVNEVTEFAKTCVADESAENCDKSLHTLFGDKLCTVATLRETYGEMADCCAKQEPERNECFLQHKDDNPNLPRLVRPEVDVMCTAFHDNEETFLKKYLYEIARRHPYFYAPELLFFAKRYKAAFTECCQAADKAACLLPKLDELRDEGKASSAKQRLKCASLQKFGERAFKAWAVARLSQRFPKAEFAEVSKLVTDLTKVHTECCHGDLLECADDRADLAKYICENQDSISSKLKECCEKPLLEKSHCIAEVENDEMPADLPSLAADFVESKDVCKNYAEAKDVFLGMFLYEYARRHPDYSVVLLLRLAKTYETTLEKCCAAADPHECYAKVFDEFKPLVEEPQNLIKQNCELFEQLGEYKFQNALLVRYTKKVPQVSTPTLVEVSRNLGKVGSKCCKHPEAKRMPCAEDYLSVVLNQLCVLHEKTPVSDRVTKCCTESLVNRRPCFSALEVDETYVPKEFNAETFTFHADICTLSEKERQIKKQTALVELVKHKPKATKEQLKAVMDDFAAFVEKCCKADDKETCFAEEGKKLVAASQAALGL
Protocol: as §1, §2, §3

[6] = higher levels of NaOH than 0.02 M (0.05 M and 0.1 M)
[7] = Extraction solvent evaluation / solubility; type: physicochemical
Protocol: Protocols utilizing aqueous or organic solvent extraction solutions (acidic, alkaline or neutral pH) combined with at ambient and elevated temperatures shaking and sonication procedures have all been reported. Therefore, one-variable-at-a-time method was applied to find a ubiquitous method suitable for all investigated analytes. […] Folic acid in solution is known to decompose when exposed to ultraviolet light and/or increased temperature; thus, all experiments were performed at ambient temperature using amber laboratory glassware.

SMILES	PPBAGP, percentage of analyte bound to α1-acid glycoprotein (AGP) obtained by AGP-HPLC [1] [%]	log kw IAM, chromatographic parameter of lipophilicity obtained by IAM-HPLC [2]	RMw, chromatographic parameter of hydrophobicity obtained by RP-TLC [3]	log kw C18, chromatographic parameter of hydrophobicity obtained by RP-HPLC [4]	PPBHSA, percentage of analyte bound to human serum albumin (HSA) obtained by HSA-HPLC [5] [%]	stability in NaOH extraction solution [6]	difference between log kw C18 and log kw IAM values [2]	solubility ([7]; in basic aqueous solutions)	extraction efficiency ([7]; in methanol) [%]	solubility ([7]; in organic solvents as well as in water)	extraction efficiency ([7]; in water) [%]
Sc1ncnc2nc[nH]c12 [6-mercaptopurine]	22.15	−0.19	0.23	0.45	–	–	–	–	–	–	–
Nc1nc2nc[nH]c2c(=S)[nH]1 [6-thioguanine]	45.96	0.03	0.21	0.32	24.11	–	–	–	–	–	–
Cn1cnc([N+](=O)[O-])c1Sc1ncnc2nc[nH]c12 [Azathioprine, azathioprine]	75.96	0.68	1.41	1.34	49.22	degradation	–	–	–	–	–
Nc1nc2ncc(CNc3ccc(C(=O)N[C@@H](CCC(=O)O)C(=O)O)cc3)nc2c(=O)[nH]1 [Folic acid, folic acid]	3.45	−0.26	0.57	0.99	69.40	–	1.25	soluble in basic aqueous solutions	4.6	slightly soluble	22.4

Source: PMC6803969, “Pharmacokinetic Profiling and Simultaneous Determination of Thiopurine Immunosuppressants and Folic Acid by Chromatographic Methods” (Molecules, 2019)
